Reference: the supplement of paper PMC10307832

Assays:
Assay in all cases: relative viability (nuclei count vs DMSO), 5 days (fraction); higher = more cells survive
[1] = compound: CC1=C(C(=NN1)C)CC2=C(C3=C(S2)N(C(=O)N(C3=O)C)CC(C)C)C(=O)N4C[C@@H](CO4)O + CS(=O)(=O)CCNCc1ccc(-c2ccc3ncnc(Nc4ccc(OCc5cccc(F)c5)c(Cl)c4)c3c2)o1 [Lapatinib] (partner 2 µM)
Outline: (§1)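 Relative viability equals treated-well nuclei counts divided by vehicle-well nuclei counts. Counts came from 4× images of lung cancer cell lines grown in 1536-well plates for 5 days after pin-tool dosing on the day after seeding. Dosing used one drug alone or a fixed anchor-drug dose plus five library-drug doses (not always all listed) in √10 steps, and values are medians of duplicate plates.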

[2] = compound: CC1=C(C(=NN1)C)CC2=C(C3=C(S2)N(C(=O)N(C3=O)C)CC(C)C)C(=O)N4C[C@@H](CO4)O + O=C(c1cc(Cc2n[nH]c(=O)c3ccccc23)ccc1F)N1CCN(C(=O)C2CC2)CC1 [Olaparib] (partner 8 µM)
Outline: as §1

[3] = compound: Cc1ccccc1C(C(=O)NC1CCCCC1)N(C(=O)Cn1ccnc1C)c1cccc(F)c1 [IDH-C35] + Cc1cc(Nc2cc(N3CCN(C)CC3)nc(Sc3ccc(NC(=O)C4CC4)cc3)n2)n[nH]1 [Tozasertib] (partner 0.1 µM)
Outline: as §1

[4] = compound: Cc1ccccc1C(C(=O)NC1CCCCC1)N(C(=O)Cn1ccnc1C)c1cccc(F)c1 [IDH-C35] + Nc1ncn([C@H]2C[C@H](O)[C@@H](CO)O2)c(=O)n1 [Decitabine] (partner 2 µM)
Outline: as §1

Cell Line	relative viability ([1]; first compound 0.0025 µM)	relative viability ([1]; first compound 0.007906 µM)	relative viability ([1]; first compound 0.025 µM)	relative viability ([1]; first compound 0.07906 µM)	relative viability ([1]; first compound 0.25 µM)	relative viability ([2]; first compound 0.0025 µM)	relative viability ([2]; first compound 0.007906 µM)	relative viability ([2]; first compound 0.025 µM)	relative viability ([2]; first compound 0.07906 µM)	relative viability ([2]; first compound 0.25 µM)	relative viability ([3]; first compound 0.08 µM)	relative viability ([3]; first compound 0.253 µM)	relative viability ([3]; first compound 0.8 µM)	relative viability ([3]; first compound 2.53 µM)	relative viability ([3]; first compound 8 µM)	relative viability ([4]; first compound 0.08 µM)	relative viability ([4]; first compound 0.253 µM)	relative viability ([4]; first compound 0.8 µM)	relative viability ([4]; first compound 2.53 µM)	relative viability ([4]; first compound 8 µM)
HCC-827	0.189	0.171	0.192	0.156	0.167	0.641	0.629	0.58	0.612	0.612	0.4	0.394	0.388	0.428	0.433	0.309	0.318	0.282	0.317	0.296
HOP-62	1.05	0.946	1.05	0.952	1.08	0.408	0.434	0.545	0.425	0.515	0.394	0.368	0.334	0.382	0.331	0.175	0.237	0.229	0.206	0.206
LC-2-ad	1.01	0.893	0.993	0.912	1.14	0.748	0.659	0.702	0.658	0.782	0.472	0.435	0.503	–	0.428	0.73	0.839	0.847	0.764	0.782
LCLC-97TM1	0.721	0.776	0.896	0.972	1.13	0.492	0.519	0.404	0.38	0.414	0.397	0.189	0.184	0.196	0.231	0.219	0.247	0.255	–	0.238
LK-2	0.987	0.933	0.787	0.903	0.851	0.743	0.608	0.504	0.556	0.6	0.157	0.197	0.178	0.184	0.203	0.327	0.368	0.205	0.395	0.289
LOU-NH91	0.74	0.755	0.815	0.781	0.813	0.912	0.877	0.925	0.956	0.926	0.739	0.69	0.687	0.598	0.652	0.808	0.799	0.795	0.767	0.799
LU99A	1.22	0.982	0.9	0.975	1.11	0.224	0.262	0.246	0.193	0.229	0.281	0.255	0.257	0.296	0.257	0.963	0.853	0.944	0.867	0.849
LXF-289	0.909	0.855	0.875	0.891	0.975	1.06	1	1.07	1.03	1.25	0.17	0.173	0.201	0.209	0.166	0.405	0.401	0.38	0.371	0.415
NCI-H23	1.21	1.26	0.931	1.27	1.28	0.39	0.322	0.311	0.339	0.376	0.325	0.399	0.414	0.313	0.406	0.332	0.35	0.336	0.332	0.312
NCI-H322M	0.626	0.605	0.601	0.55	0.524	0.448	0.726	0.702	0.659	0.736	0.46	0.494	0.466	0.467	0.517	0.686	0.701	0.695	0.718	0.78
NCI-H358	0.58	0.425	0.478	0.514	0.434	0.596	0.557	0.625	0.605	0.684	0.099	0.112	0.112	0.0888	0.0934	0.216	0.192	0.234	0.211	0.213
NCI-H460	0.959	1.34	0.996	1.08	1.28	0.419	0.516	0.418	0.355	0.459	0.614	0.396	0.493	0.336	0.412	0.541	0.46	0.482	0.467	0.466
NCI-H520	0.983	0.823	0.621	0.496	0.544	0.286	0.296	0.26	0.253	0.272	0.327	0.427	0.54	0.405	0.409	0.407	0.462	0.538	0.508	0.486
NCI-H596	1.12	1.19	1.14	0.982	1.09	0.765	0.743	0.73	0.696	0.635	1.01	0.866	0.937	–	0.788	1.06	1.04	0.933	0.853	1.02
NCI-H647	1.28	1.35	1.04	1.15	1.19	0.626	0.415	0.481	0.647	0.685	0.29	0.244	0.21	0.261	0.284	0.45	0.344	0.401	0.42	0.366
NCI-H650	0.939	0.0037	0.753	0.893	0.956	0.415	0.45	0.345	0.41	0.454	0.669	0.765	0.768	–	0.698	0.304	0.339	0.371	–	0.313

Cell Line	relative viability ([1]; first compound 0.0025 µM)	relative viability ([1]; first compound 0.007906 µM)	relative viability ([1]; first compound 0.025 µM)	relative viability ([1]; first compound 0.07906 µM)	relative viability ([1]; first compound 0.25 µM)	relative viability ([2]; first compound 0.0025 µM)	relative viability ([2]; first compound 0.007906 µM)	relative viability ([2]; first compound 0.025 µM)	relative viability ([2]; first compound 0.07906 µM)	relative viability ([2]; first compound 0.25 µM)	relative viability ([3]; first compound 0.08 µM)	relative viability ([3]; first compound 0.253 µM)	relative viability ([3]; first compound 0.8 µM)	relative viability ([3]; first compound 2.53 µM)	relative viability ([3]; first compound 8 µM)	relative viability ([4]; first compound 0.08 µM)	relative viability ([4]; first compound 0.253 µM)	relative viability ([4]; first compound 0.8 µM)	relative viability ([4]; first compound 2.53 µM)	relative viability ([4]; first compound 8 µM)
NCI-H661	0.523	0.649	0.464	0.623	0.493	0.72	0.738	0.681	0.782	0.77	0.326	0.358	0.372	0.346	0.355	0.566	0.541	0.546	0.535	0.602
NCI-H727	1.17	0.857	0.781	0.569	0.869	0.813	0.762	0.747	0.782	0.568	0.49	0.61	0.647	0.606	0.558	0.797	0.979	0.708	0.845	0.939
NCI-H838	1.03	1.06	0.907	0.778	0.96	0.741	0.714	0.639	0.65	0.604	0.249	0.276	0.292	0.281	0.234	0.446	0.414	0.468	0.464	0.486
NCI-H1355	1.08	1.11	0.918	0.945	0.943	0.889	0.806	0.783	0.738	0.724	0.538	0.606	0.601	0.526	0.502	0.347	0.379	0.353	0.419	0.344
NCI-H1395	0.941	0.948	0.776	0.839	0.949	0.552	0.408	0.38	0.342	0.403	0.723	0.831	0.735	0.728	0.774	0.695	0.649	0.676	0.754	0.653
NCI-H1437	0.925	0.981	0.738	0.795	0.922	0.624	0.622	0.635	0.643	0.613	0.411	0.443	0.405	0.413	0.366	0.56	0.56	0.576	0.572	0.525
NCI-H1650	0.954	1.12	0.875	0.881	0.926	0.826	0.823	0.759	0.79	0.797	0.407	0.393	0.378	0.444	0.355	0.417	0.358	0.408	0.465	0.453
NCI-H1651	0.922	0.971	0.771	0.766	0.833	0.178	0.172	0.205	0.193	0.199	0.696	0.737	0.643	0.632	0.683	0.528	0.629	0.593	0.615	0.555
NCI-H1666	0.72	0.584	0.734	0.786	0.669	0.751	0.742	0.766	0.769	0.725	0.585	0.752	0.619	0.58	0.536	0.676	0.801	0.747	0.606	0.655
NCI-H1734	1.19	1.11	1.02	0.986	0.812	0.663	0.635	0.576	0.511	0.53	0.28	0.27	0.246	0.247	0.249	0.537	0.524	0.528	0.483	0.499
NCI-H1755	1.04	0.919	1.02	1.04	1.07	0.92	0.897	0.861	0.85	0.902	0.587	0.522	0.607	0.671	0.553	0.685	0.639	0.757	0.708	0.708
NCI-H1793	0.514	0.649	0.549	0.431	0.426	0.896	0.975	0.829	0.768	0.719	0.353	0.415	0.329	–	0.296	0.519	0.454	0.535	0.586	0.476
NCI-H1915	0.98	1.02	0.953	0.967	1.06	0.259	0.251	0.266	0.249	0.255	0.407	0.42	0.438	0.429	0.396	0.278	0.248	0.293	0.281	0.277
NCI-H1944	0.877	0.94	0.951	0.822	0.92	0.455	0.427	0.423	0.373	0.423	0.249	0.248	0.246	0.253	0.265	0.43	0.416	0.43	0.416	0.437
NCI-H1975	0.792	0.942	0.916	0.995	1.08	0.814	0.906	0.839	0.77	0.875	0.782	0.898	0.673	0.672	0.691	0.442	0.403	0.379	0.438	0.364
NCI-H1993	0.856	0.809	0.744	0.745	0.947	0.964	0.957	0.947	0.844	0.912	0.545	0.614	0.551	0.579	0.536	0.586	0.567	0.7	0.693	0.566
